Measurements as given in ChEMBL document CHEMBL4428111, “Antiplasmodial activity of alkyl-substituted 1,2-dioxetanes against Plasmodium falciparum” (Bioorg Med Chem Lett, 2016).
In brackets after ≈: the same amount, converted by molar mass.

Experiments:
Plasmodium falciparum [1] = test: Antiplasmodial activity against chloroquine-resistant/mefloquine-sensitive Plasmodium falciparum W2 schizonts infected in human erythrocytes assessed as inhibition of parasite invasion after 24 hrs by Diff-Quick staining based microscopic analysis; format: functional, organism-based; details: W2, 24 h
Plasmodium falciparum [2] = test: Antiplasmodial activity against chloroquine-resistant/mefloquine-sensitive Plasmodium falciparum W2 schizonts infected in human erythrocytes assessed as inhibition of parasite invasion at 10^-8 mol/L after 24 hrs by Diff-Quick staining based microscopic analysis relative to control; format: functional; details: W2, 24 h
Plasmodium falciparum [3] = test: Antiplasmodial activity against chloroquine-resistant/mefloquine-sensitive Plasmodium falciparum W2 schizonts infected in human erythrocytes assessed as inhibition of parasite invasion at 10^-9 mol/L after 24 hrs by Diff-Quick staining based microscopic analysis relative to control; format: functional; details: W2, 24 h
Plasmodium falciparum [4] = test: Antiplasmodial activity against chloroquine-resistant/mefloquine-sensitive Plasmodium falciparum W2 schizonts infected in human erythrocytes assessed as inhibition of parasite invasion at 10^-12 mol/L after 24 hrs by Diff-Quick staining based microscopic analysis relative to control; format: functional; details: W2, 24 h
Plasmodium falciparum [5] = test: Antiplasmodial activity against chloroquine-resistant/mefloquine-sensitive Plasmodium falciparum W2 schizonts infected in human erythrocytes assessed as inhibition of parasite invasion at 10^-10 mol/L after 24 hrs by Diff-Quick staining based microscopic analysis relative to control; format: functional; details: W2, 24 h
Plasmodium falciparum [6] = test: Antiplasmodial activity against chloroquine-resistant/mefloquine-sensitive Plasmodium falciparum W2 schizonts infected in human erythrocytes assessed as inhibition of parasite invasion at 10^-11 mol/L after 24 hrs by Diff-Quick staining based microscopic analysis relative to control; format: functional; details: W2, 24 h
Plasmodium falciparum [7] = test: Antiplasmodial activity against chloroquine-resistant/mefloquine-sensitive Plasmodium falciparum W2 schizonts infected in human erythrocytes assessed as inhibition of parasite invasion at 10^-14 mol/L after 24 hrs by Diff-Quick staining based microscopic analysis relative to control; format: functional; details: W2, 24 h
Plasmodium falciparum [8] = test: Antiplasmodial activity against chloroquine-resistant/mefloquine-sensitive Plasmodium falciparum W2 schizonts infected in human erythrocytes assessed as inhibition of parasite invasion at 10^-6 mol/L after 24 hrs by Diff-Quick staining based microscopic analysis relative to control; format: functional; details: W2, 24 h
Plasmodium falciparum [9] = test: Antiplasmodial activity against chloroquine-resistant/mefloquine-sensitive Plasmodium falciparum W2 schizonts infected in human erythrocytes assessed as inhibition of parasite invasion after 24 hrs by Diff-Quick staining based microscopic analysis relative to artemisinin; format: functional
Erythrocyte [10] = test: Hemolytic activity against human RBC assessed as reduction in hemoglobin release after 24 hrs by spectrophotometric method; format: ADME, cell-based
Plasmodium falciparum [11] = test: Antiplasmodial activity against chloroquine-resistant/mefloquine-sensitive Plasmodium falciparum W2 schizonts infected in human erythrocytes assessed as parasite invasion after 24 hrs by Diff-Quick staining based microscopic analysis (reference value: 15.26 +/- 2.13%); format: functional
Erythrocyte [12] = test: Hemolytic activity against human RBC assessed as reduction in hemoglobin release at 10^-8 M after 24 hrs by spectrophotometric method relative to control; format: ADME, cell-based; set-up: scale not given: the % may be the effect or the level left; details: 0.01 µM
Plasmodium falciparum [13] = test: Antiplasmodial activity against chloroquine-resistant/mefloquine-sensitive Plasmodium falciparum W2 schizonts infected in human erythrocytes assessed as inhibition of parasite invasion at 10^-5 mol/L after 24 hrs by Diff-Quick staining based microscopic analysis relative to control; format: functional; details: W2, 24 h
[14] = Therapeutic index, ratio of MHC for human RBC to MIC for chloroquine-resistant/mefloquine-sensitive Plasmodium falciparum W2 schizonts infected in human erythrocytes; format: toxicity, cell-based; details: read-out: TI
Plasmodium falciparum [15] = test: Antiplasmodial activity against chloroquine-resistant/mefloquine-sensitive Plasmodium falciparum W2 schizonts infected in human erythrocytes assessed as inhibition of parasite invasion at 10^-7 mol/L after 24 hrs by Diff-Quick staining based microscopic analysis relative to control; format: functional; details: W2, 24 h
Plasmodium falciparum [16] = test: Antiplasmodial activity against chloroquine-resistant/mefloquine-sensitive Plasmodium falciparum W2 schizonts infected in human erythrocytes assessed as inhibition of parasite invasion at 10^-4 mol/L after 24 hrs by Diff-Quick staining based microscopic analysis relative to control; format: functional; details: W2, 24 h

Row | Structure (SMILES) | IC50 (Plasmodium falciparum [1]) | inhibition at 0.01 µM (Plasmodium falciparum [2]) | inhibition at 0.001 µM (Plasmodium falciparum [3]) | inhibition at 1 pM (Plasmodium falciparum [4]) | inhibition at 0.0001 µM (Plasmodium falciparum [5]) | inhibition at 10 pM (Plasmodium falciparum [6]) | inhibition at 10 fM (Plasmodium falciparum [7]) | inhibition at 1 µM (Plasmodium falciparum [8]) | fold change (FC) (Plasmodium falciparum [9]) | MHC (Erythrocyte [10]) | Activity (Plasmodium falciparum [11]) | Activity (Erythrocyte [12]) | MIC (Plasmodium falciparum [1]) | inhibition at 10 µM (Plasmodium falciparum [13]) | selectivity ratio [14] | inhibition at 0.1 µM (Plasmodium falciparum [15]) | inhibition at 100 µM (Plasmodium falciparum [16])
1 | C1C2CC3CC1CC(C2)C31OOC12C1CC3CC(C1)CC2C3 (configuration not stated) | 0.19 nM | 64 to 65.8% | 53.4 to 54.4% | 20.5 to 21.2% | 36.2 to 38.8% | 24.6 to 25.4% | 16.7 to 18.4% | 65.6 to 67% | 105 | 1 ×10⁻⁶ M | 6.01% | 2% | – | – | – | – | –
2 | CC1(C)OOC1(C)C | 45 nM | 35.6 to 36.3% | – | 16.7 to 17.4% | 23.4 to 25.6% | – | – | 74.7 to 79.4% | 0.45 | 1 ×10⁻⁵ M | 9.83% | 1.4% | 0.001 nM (≈ 0.000116 ng/mL) | 81 to 84% | 1e+07 | 60.2 to 60.3% | –
3 | C[C@@H]1CC[C@H]2[C@@H](C)C(=O)O[C@@H]3O[C@@]4(C)CC[C@@H]1[C@]32OO4 [ARTEMISININ] | 10 to 20 nM | 63.4 to 67.4% | 52.3 to 54% | 38.5 to 40.6% | 43.1 to 48.7% | – | – | 99 to 100% | – | 1 ×10⁻⁴ M | 5.58% | 1.5% | 0.001 nM (≈ 0.000282 ng/mL) | – | – | 82.2 to 85.4% | 100%
